Measured values taken from ChEMBL document CHEMBL1201862, “PubChem BioAssay data set” (2004).
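Cells were grown in 96-well plates and exposed to each compound for 48 hours at five concentrations; endpoints were interpolated linearly between bracketing concentrations, or set to the highest concentration if not reached. GI50 marks 50% less growth.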 The source made the active and inactive calls. No stated cut-off is given here; in the data, active = GI50 up to about 1.1 µM and inactive = higher.

Experiments:
Test in all cases: DTP human tumour cell line panel, 48 h
[1] = tested on: LOX IMVI
[2] = tested on: CCRF-CEM
[3] = tested on: K562
[4] = tested on: COLO 205
[5] = tested on: MOLT-4
[6] = tested on: SNB-19
[7] = tested on: NCI-H460
[8] = tested on: HL-60
[9] = tested on: OVCAR-3
[10] = tested on: HCT-15
[11] = tested on: SK-MEL-28
[12] = tested on: HOP-62
[13] = tested on: NCI-H226
[14] = tested on: SW-620
[15] = tested on: IGROV-1
[16] = tested on: RXF 393
[17] = tested on: OVCAR-4
[18] = tested on: NCI-H522
[19] = tested on: HOP-92
[20] = tested on: A549

| SMILES | GI50 [1] | GI50 [2] | GI50 [3] | GI50 [4] | GI50 [5] | GI50 [6] | GI50 [7] | GI50 [8] | GI50 [9] | GI50 [10] [µM] | GI50 [11] | GI50 [12] | GI50 [13] | GI50 [14] | GI50 [15] | GI50 [16] | GI50 [17] | GI50 [18] | GI50 [19] | GI50 [20] |
| --- | --- | --- | --- | --- | --- | --- | --- | --- | --- | --- | --- | --- | --- | --- | --- | --- | --- | --- | --- | --- |
| Cc1cccc(C)c1NC(=O)Nc1ccc(S(N)(=O)=O)cc1 | > 100 µM (inactive) | > 100 µM (inactive) | > 100 µM (inactive) | > 100 µM (inactive) | > 100 µM (inactive) | > 100 µM (inactive) | > 100 µM (inactive) | > 100 µM (inactive) | > 100 µM (inactive) | > 100 | > 100 µM (inactive) | > 100 µM (inactive) | > 100 µM (inactive) | > 100 µM (inactive) | > 100 µM (inactive) | > 100 µM (inactive) | > 100 µM (inactive) | > 100 µM (inactive) | > 100 µM (inactive) | > 100 µM (inactive) |
| c1ccc(OCc2nnc(CCCCCCCCc3nnc(COc4ccccc4)o3)o2)cc1 | > 100 µM (inactive) | > 100 µM (inactive) | > 100 µM (inactive) | > 100 µM (inactive) | > 100 µM (inactive) | 73.8 µM (inactive) | > 100 µM (inactive) | > 100 µM (inactive) | 27.8 µM (inactive) | > 100 | > 100 µM (inactive) | 97.3 µM (inactive) | > 100 µM (inactive) | > 100 µM (inactive) | > 100 µM (inactive) | 13.2 µM (inactive) | > 100 µM (inactive) | 50.6 µM (inactive) | 55.6 µM (inactive) | > 100 µM (inactive) |
| COC(=O)C(=O)OC1(C(C)=O)CC2(c3ccccc3)OC1(c1ccccc1)c1ccccc12 (configuration not stated) | 15.7 µM (inactive) | 33.6 µM (inactive) | 27.7 µM (inactive) | 15.8 µM (inactive) | 22 µM (inactive) | 19.9 µM (inactive) | 18.4 µM (inactive) | 33.5 µM (inactive) | 13.9 µM (inactive) | 16.9 | – | 18.4 µM (inactive) | 17.3 µM (inactive) | 16.4 µM (inactive) | 16.3 µM (inactive) | 15.4 µM (inactive) | 20.2 µM (inactive) | 17.7 µM (inactive) | 14 µM (inactive) | 14.8 µM (inactive) |
| COc1ccc(C(=C2C(=O)N(c3ccccc3)C(=O)C2=C(C)C)c2ccc(OC)cc2)cc1 | 3.72 µM (inactive) | 0.546 µM (active) | 3.27 µM (inactive) | 2.96 µM (inactive) | 2.54 µM (inactive) | 4.07 µM (inactive) | 4.22 µM (inactive) | 0.998 µM (active) | 3.56 µM (inactive) | 2.92 | 3.09 µM (inactive) | 9.02 µM (inactive) | 4.56 µM (inactive) | 3.19 µM (inactive) | 3.44 µM (inactive) | 2.09 µM (inactive) | 3.23 µM (inactive) | 1.5 µM (inactive) | 10.3 µM (inactive) | 5.21 µM (inactive) |
| N/N=C(\C(=O)Nc1c(Cl)cc([N+](=O)[O-])cc1Cl)C(c1cnc2ccc([N+](=O)[O-])cc2n1)[N+](=O)[O-] (configuration not stated) | > 100 µM (inactive) | 77.1 µM (inactive) | 46.6 µM (inactive) | > 100 µM (inactive) | 47.6 µM (inactive) | > 100 µM (inactive) | > 100 µM (inactive) | 28.1 µM (inactive) | – | > 100 | > 100 µM (inactive) | > 100 µM (inactive) | 6.71 µM (inactive) | 99.3 µM (inactive) | > 100 µM (inactive) | > 100 µM (inactive) | > 100 µM (inactive) | 9.98 µM (inactive) | > 100 µM (inactive) | > 100 µM (inactive) |
| COc1ccc(/C=C2\C[C@H]3[C@@H]4CCC5=C/C(=N/O)CC[C@]5(C)[C@H]4CC[C@]3(C)\C2=N\O)cc1OC | 18.8 µM (inactive) | 6.76 µM (inactive) | 6.92 µM (inactive) | – | 5.79 µM (inactive) | 52.6 µM (inactive) | 3.61 µM (inactive) | 4.72 µM (inactive) | 9.1 µM (inactive) | 14.7 | 88.5 µM (inactive) | 40.6 µM (inactive) | 2.51 µM (inactive) | 34.2 µM (inactive) | 47.4 µM (inactive) | 28.4 µM (inactive) | 11 µM (inactive) | 23.1 µM (inactive) | 7.85 µM (inactive) | 6.98 µM (inactive) |
| COc1cccc(N2C(=O)CSC2c2cccc(Oc3ccccc3)c2)c1 (configuration not stated) | 6.87 µM (inactive) | 9.33 µM (inactive) | 3.42 µM (inactive) | 3.37 µM (inactive) | 3.88 µM (inactive) | 8.41 µM (inactive) | 3.33 µM (inactive) | 4.39 µM (inactive) | 4.79 µM (inactive) | 4.21 | 19 µM (inactive) | 9.38 µM (inactive) | 8.32 µM (inactive) | 4.8 µM (inactive) | – | 7.03 µM (inactive) | 10.3 µM (inactive) | 3.34 µM (inactive) | 6.21 µM (inactive) | 9.53 µM (inactive) |
| O=C(CC/C=C(/CS(=O)(=O)c1ccccc1)S(=O)(=O)c1ccccc1)c1ccccc1 | > 100 µM (inactive) | 12.1 µM (inactive) | > 100 µM (inactive) | – | > 100 µM (inactive) | > 100 µM (inactive) | > 100 µM (inactive) | 42.9 µM (inactive) | 85.5 µM (inactive) | > 100 | > 100 µM (inactive) | > 100 µM (inactive) | > 100 µM (inactive) | > 100 µM (inactive) | > 100 µM (inactive) | 70.8 µM (inactive) | > 100 µM (inactive) | 10.4 µM (inactive) | > 100 µM (inactive) | > 100 µM (inactive) |
| CCn1c(=N)sc2nc3ccccc3n2c1=O | > 100 µM (inactive) | 90.8 µM (inactive) | > 100 µM (inactive) | > 100 µM (inactive) | > 100 µM (inactive) | > 100 µM (inactive) | > 100 µM (inactive) | > 100 µM (inactive) | > 100 µM (inactive) | > 100 | > 100 µM (inactive) | > 100 µM (inactive) | > 100 µM (inactive) | > 100 µM (inactive) | > 100 µM (inactive) | > 100 µM (inactive) | > 100 µM (inactive) | > 100 µM (inactive) | > 100 µM (inactive) | > 100 µM (inactive) |
| C=C(CS(=O)(=O)c1ccccc1)[P+](c1ccccc1)(c1ccccc1)c1ccccc1 | 13.5 µM (inactive) | 5.22 µM (inactive) | 4.65 µM (inactive) | – | 16.6 µM (inactive) | 28.4 µM (inactive) | 22.1 µM (inactive) | 9.16 µM (inactive) | 14.8 µM (inactive) | 23.6 | 11.1 µM (inactive) | 28.1 µM (inactive) | 16.4 µM (inactive) | 18.2 µM (inactive) | 25.7 µM (inactive) | 19.2 µM (inactive) | 37.9 µM (inactive) | 18.6 µM (inactive) | 24.5 µM (inactive) | 34.3 µM (inactive) |
| CC1(C)CN=C(Nc2ccc(F)cc2)S1 | > 100 µM (inactive) | > 100 µM (inactive) | > 100 µM (inactive) | > 100 µM (inactive) | > 100 µM (inactive) | > 100 µM (inactive) | – | > 100 µM (inactive) | > 100 µM (inactive) | > 100 | > 100 µM (inactive) | > 100 µM (inactive) | > 100 µM (inactive) | > 100 µM (inactive) | > 100 µM (inactive) | > 100 µM (inactive) | > 100 µM (inactive) | > 100 µM (inactive) | 59.7 µM (inactive) | > 100 µM (inactive) |
| CCN(CC)CCCNc1nc(=O)[nH]c(C)c1C(=O)Nc1ccc2c(c1)c1ccccc1n2CC | > 100 µM (inactive) | > 100 µM (inactive) | > 100 µM (inactive) | > 100 µM (inactive) | > 100 µM (inactive) | > 100 µM (inactive) | – | > 100 µM (inactive) | > 100 µM (inactive) | > 100 | > 100 µM (inactive) | > 100 µM (inactive) | > 100 µM (inactive) | > 100 µM (inactive) | > 100 µM (inactive) | > 100 µM (inactive) | > 100 µM (inactive) | > 100 µM (inactive) | > 100 µM (inactive) | > 100 µM (inactive) |
| Cc1cc(=O)n2nc(CCl)sc2n1 | 4.19 µM (inactive) | 6.62 µM (inactive) | 17.8 µM (inactive) | 18.7 µM (inactive) | 11.8 µM (inactive) | 15.8 µM (inactive) | 11.4 µM (inactive) | 17.3 µM (inactive) | 14.9 µM (inactive) | 13.6 | 13.2 µM (inactive) | 18.1 µM (inactive) | 13.9 µM (inactive) | 15.8 µM (inactive) | 14.9 µM (inactive) | 5.94 µM (inactive) | 17.8 µM (inactive) | 5.57 µM (inactive) | 12.6 µM (inactive) | 16.5 µM (inactive) |
| O=C(NCCOC(=O)OCCNC(=O)NC1CCCCC1)NC1CCCCC1 | > 100 µM (inactive) | > 100 µM (inactive) | > 100 µM (inactive) | > 100 µM (inactive) | > 100 µM (inactive) | > 100 µM (inactive) | > 100 µM (inactive) | > 100 µM (inactive) | > 100 µM (inactive) | > 100 | > 100 µM (inactive) | 35.6 µM (inactive) | > 100 µM (inactive) | > 100 µM (inactive) | > 100 µM (inactive) | 72.6 µM (inactive) | 91.6 µM (inactive) | > 100 µM (inactive) | 27.1 µM (inactive) | > 100 µM (inactive) |
